# According to the supplement of paper PMC13380429:
# Key:
# Conditions in all cases: 72 h
# Calu-3 [1] = assay: cell viability relative to DMSO; higher = less toxic
# HepG2 [2] = assay: as above
# U2OS [3] = assay: as above
# Vero E6 [4] = assay: as above
# Calu-3 [5] = assay: relative viability EC50 (midpoint between 100% and the lowest measured viability); higher = less toxic
# HepG2 [6] = assay: as above
# U2OS [7] = assay: as above
# Vero E6 [8] = assay: as above
# Calu-3 [9] = assay: drug sensitivity score (DSS) for viability; higher = more toxic; extreme values may be limits of the assay
# HepG2 [10] = assay: as above
# U2OS [11] = assay: as above
# Vero E6 [12] = assay: as above
# Caco-2 [13] = assay: cell viability relative to DMSO; higher = less toxic
# Caco-2 [14] = assay: relative viability EC50 (midpoint between 100% and the lowest measured viability); higher = less toxic
# Caco-2 [15] = assay: drug sensitivity score (DSS) for viability; higher = more toxic; extreme values may be limits of the assay
SMILES,cell viability (Calu-3 [1]; 1 nM) [%],cell viability (Calu-3 [1]; 10 nM) [%],cell viability (Calu-3 [1]; 100 nM) [%],cell viability (Calu-3 [1]; 1000 nM) [%],cell viability (Calu-3 [1]; 10000 nM) [%],cell viability (HepG2 [2]; 1 nM) [%],cell viability (HepG2 [2]; 10 nM) [%],cell viability (HepG2 [2]; 100 nM) [%],cell viability (HepG2 [2]; 1000 nM) [%],cell viability (HepG2 [2]; 10000 nM) [%],cell viability (U2OS [3]; 1 nM) [%],cell viability (U2OS [3]; 10 nM) [%],cell viability (U2OS [3]; 100 nM) [%],cell viability (U2OS [3]; 1000 nM) [%],cell viability (U2OS [3]; 10000 nM) [%],cell viability (Vero E6 [4]; 1 nM) [%],cell viability (Vero E6 [4]; 10 nM) [%],cell viability (Vero E6 [4]; 100 nM) [%],cell viability (Vero E6 [4]; 1000 nM) [%],cell viability (Vero E6 [4]; 10000 nM) [%],relative viability EC50 (Calu-3 [5]) [µM],relative viability EC50 (HepG2 [6]) [µM],relative viability EC50 (U2OS [7]) [µM],relative viability EC50 (Vero E6 [8]) [µM],drug sensitivity score (Calu-3 [9]),drug sensitivity score (HepG2 [10]),drug sensitivity score (U2OS [11]),drug sensitivity score (Vero E6 [12]),cell viability (Caco-2 [13]; 1 nM) [%],cell viability (Caco-2 [13]; 10 nM) [%],cell viability (Caco-2 [13]; 100 nM) [%],cell viability (Caco-2 [13]; 1000 nM) [%],cell viability (Caco-2 [13]; 10000 nM) [%],relative viability EC50 (Caco-2 [14]) [µM],drug sensitivity score (Caco-2 [15])
CN(C)N(C)C(=O)[C@@]1(Cc2ccccc2)CCCN(C(=O)[C@@H](Cc2c[nH]c3ccccc23)NC(=O)C(C)(C)N)C1 [anamorelin],85.1,86.9,91.7,94.4,89.8,113,99.6,106,102,103,103,100,104,102,99.5,103,107,101,104,95.4,> 10,> 10,> 10,> 10,0,0,0,0,–,–,–,–,–,–,–
CC[C@H]1OC(=O)[C@@](C)(F)C(=O)[C@H](C)[C@@H](O[C@@H]2O[C@H](C)C[C@H](N(C)C)[C@H]2O)[C@](C)(OC)C[C@@H](C)C(=O)[C@H](C)[C@H]2N(CCCCn3cc(-c4cccc(N)c4)nn3)C(=O)O[C@]12C [solithromycin],104,100,98.4,97.2,89.8,102,102,87.4,94.2,58.7,97.6,95.5,94.6,103,91,98.2,100,97.2,104,93.4,> 10,–,> 10,> 10,0,3.1,0,0,105,90.6,101,107,93.3,> 10,0
O=C(c1ccc(F)c(F)c1Nc1ccc(I)cc1F)N1CC(O)([C@@H]2CCCCN2)C1 [cobimetinib],93.2,86.6,81.4,50.1,32.7,94.3,86.7,32.8,24.5,17.1,96.5,94.5,94.3,75.8,23.6,90.2,86.1,72.9,50.2,45.7,0.238,0.0341,1.43,0.0591,11.9,24.5,7.4,13,89.5,82.8,84.8,69.1,63.1,–,8.3
N#Cc1ccc(C(c2ccc(C#N)cc2)n2cncn2)cc1 [letrozole],97.1,101,101,99.1,99,–,–,–,–,–,104,105,99.6,107,101,106,106,114,99.9,105,> 10,–,> 10,> 10,0,–,0,0,106,107,96.2,105,97.3,> 10,0
CC(=O)Oc1ccccc1C(=O)Oc1cccc(CO[N+](=O)[O-])c1 [NO-ASA],96.3,101,98.9,103,107,95.4,104,100,88.9,79.9,98,98.5,99.4,101,93.1,102,108,101,89.7,105,> 10,> 10,> 10,> 10,0,1.7,0,0,–,–,–,–,–,–,–
Cc1c(N(C)CS(=O)(=O)O)c(=O)n(-c2ccccc2)n1C [metamizole],106,90.6,102,95.7,91.1,99.9,109,100,91.6,102,–,–,–,–,–,97.5,97.1,95.6,102,101,> 10,> 10,–,> 10,0,0,–,0,98.5,107,101,104,104,> 10,0
c1ccc(N2CCN(CCCOc3ccc4c(c3)OCO4)CC2)cc1 [BP-554],101,107,99.5,103,110,107,93.1,95.3,102,103,–,–,–,–,–,94.5,94.6,94.7,96.2,96,> 10,> 10,–,> 10,0,0,–,0,107,102,101,105,98.7,> 10,0
Cc1cc(C)c(NC(=O)N(Cc2ccc3c(c2)Cc2ccccc2-3)C2CCCCCC2)c(C)c1 [YM-750],94.1,95.3,84.9,85.6,83.3,96.2,93.5,103,92.9,59.8,97.8,99.8,94.8,94.6,79.9,96.9,98.1,91.9,101,88.3,> 10,–,> 10,> 10,2.4,3.2,1,0,98.6,100,96.6,100,55,–,2.3
CC[C@H](C)C(=O)O[C@H]1C[C@@H](C)C=C2C=C[C@H](C)[C@H](CC[C@@H]3C[C@@H](O)CC(=O)O3)[C@H]21 [lovastatin],87.8,106,96.3,111,81.6,91.2,109,96.4,92.3,88.7,94.1,108,96.2,96.6,55.4,100,100,96.2,102,88.1,> 10,> 10,–,> 10,0.2,0.1,2.8,0,92.2,85.7,84.2,106,101,> 10,0
CCOc1ccc(NC(=S)N2CCC(C(O)(c3ccccc3)c3ccccc3)CC2)cc1 [SF-11],100,107,96.7,104,96.5,99.5,100,103,109,91.7,101,96.6,98.4,98.2,100,101,99.9,98.4,99.8,102,> 10,> 10,> 10,> 10,0,0,0,0,–,–,–,–,–,–,–
Cc1nn(C)c2nc(NNC(=O)Nc3cc(Cl)nc(Cl)c3)cc(C(C)C)c12 [JTE-013],101,101,97.5,110,92,97.8,93.1,104,95.6,74.2,107,100,99.4,93.6,92.9,99.1,105,95.7,100,93.9,> 10,–,> 10,> 10,0,1.7,0,0,96.7,100,105,100,82.4,> 10,0.4
Nc1nc2[nH]cc(CCc3ccc(C(=O)N[C@@H](CCC(=O)O)C(=O)O)cc3)c2c(=O)[nH]1 [pemetrexed],108,91.9,86.6,83.3,76,85.4,100,97.3,39.4,20.1,103,95.5,107,100,68,85.2,99.1,91.6,70.9,45,> 10,0.558,–,0.768,3.7,11.8,1.4,6.5,105,86.8,87.4,96.5,79.3,> 10,1.2
c1ccc2[nH]c(-c3cscn3)nc2c1 [tiabendazole],105,102,103,97.8,110,116,104,102,97.2,106,–,–,–,–,–,93.2,96.8,102,96.3,106,> 10,> 10,–,> 10,0,0,–,0,–,–,–,–,–,–,–
Oc1cccc(-c2c3nc(c(-c4cccc(O)c4)c4ccc([nH]4)c(-c4cccc(O)c4)c4nc(c(-c5cccc(O)c5)c5ccc2[nH]5)CC4)C=C3)c1 [temoporfin],90,96.7,104,102,91.6,104,105,103,106,86.4,100,104,96.6,98.9,64.7,99.3,100,98.1,90.5,77.6,> 10,> 10,–,> 10,0,0.1,1.8,1.5,96.2,102,94.3,94.4,61.4,–,2.8
C[C@H](CCC(=O)O)[C@H]1CC[C@H]2[C@@H]3CC[C@@H]4C[C@H](O)CC[C@]4(C)[C@H]3CC[C@]12C [lithocholic-acid],98.9,91.2,98.2,93.3,105,102,96.4,108,90.2,111,–,–,–,–,–,102,101,102,101,98.7,> 10,> 10,–,> 10,0,0,–,0,106,96.9,101,98,99,> 10,0
